Measured values: US6806230B1, “Pyrimidine derivatives and herbicides containing them” (Kumiai Chemical Industry Co., Ltd., priority 1999, dated 2004)

Assays:
Type in all cases: in vivo
[1] = system: monochoria (Mo); experiment: Test Example 1: herbicidal effects by flooded paddy field treatment; design: herbicidal effects, Mo (monochoria):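 0-5 growth inhibition grade; 5 = over 90%; 4 = 70-90%; 3 = 50-70%; 2 = 30-50%; 1 = 10-30%; 0 = under 10%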; details: for herbicidal effects, Mo (monochoria): dose 100 g active ingredient per 10 ares, examined on the 21st day after treatment, standards of Table 44;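 as to Herbicidal effect index, Mo: 0-5 growth inhibition grade; 5 = over 90%; 4 = 70-90%; 3 = 50-70%; 2 = 30-50%; 1 = 10-30%; 0 = under 10%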
How it was run: (§1)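 Puddled paddy soil in pots, seeds sown, 3 cm flood. Day after sowing: wettable powder diluted in water, applied dropwise to water surface, 100 g a.i./10 ares. Greenhouse; visual herbicidal rating at day 21 post-treatment.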

[2] = system: rice (Or); experiment: Test Example 4: selectivity for a crop plant by flooded paddy field treatment; design: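 0-5 phytotoxicity grade; 5 = over 90%; 4 = 70-90%; 3 = 50-70%; 2 = 30-50%; 1 = 10-30%; 0 = under 10%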; details: rice transplanted at second leaf stage, dose 25 gai/10a, 21st day after treatment, index per Table 44
How it was run: (§2)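 Flooded paddy pots, 3 cm water; weeds sown from seed, rice transplanted at 2nd-leaf stage. Day after: wettable powder diluted in water, applied dropwise to water surface, 25 g a.i./10 a. Greenhouse; herbicidal effect rated at day 21.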

[3] = system: monochoria (Mo); experiment: as above; design: scale not given here; details: monochoria, dose 25 gai/10a, 21st day after treatment, index per Table 44
How it was run: as §2

[4] = system: barnyard grass (Eo); experiment: as above; design: scale not given here; details: barnyard grass, dose 25 gai/10a, 21st day after treatment, index per Table 44
How it was run: as §2

[5] = system: barnyard grass (Eo); experiment: Test Example 1: herbicidal effects by flooded paddy field treatment; design: herbicidal effects, Eo (barnyard grass):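 0-5 growth inhibition grade; 5 = over 90%; 4 = 70-90%; 3 = 50-70%; 2 = 30-50%; 1 = 10-30%; 0 = under 10%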; details: for herbicidal effects, Eo (barnyard grass): dose 100 g active ingredient per 10 ares, examined on the 21st day after treatment, standards of Table 44;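 as to Herbicidal effect index, Eo: 0-5 growth inhibition grade; 5 = over 90%; 4 = 70-90%; 3 = 50-70%; 2 = 30-50%; 1 = 10-30%; 0 = under 10%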
How it was run: as §1

[6] = system: barnyard grass (Ec); experiment: Test Example 3: herbicidal effects by foliage treatment in upland field; design: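 0-5 growth inhibition grade; 5 = over 90%; 4 = 70-90%; 3 = 50-70%; 2 = 30-50%; 1 = 10-30%; 0 = under 10%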; details: dose 100 g active ingredient per 10 ares, examined on the 14th day after treatment
Procedure: In a 80 cm^2 plastic pot, upland soil was filled, and seeds of barnyard grass (Ec) and green foxtail (Se) were sown and cultured in a green house for 2 weeks. Then, a wettable powder prepared in accordance with Formulation Example 1 was diluted with water and applied to the entire foliage from above the plants by means of a small size spray at a rate of 100 l per 10 ares so that the dose of the active ingredient would be 100 g per 10 ares. Thereafter, cultivation was carried out in a green house, and on the 14th day after the treatment, the herbicidal effects were examined in accordance with the standards of Table 44.

[7] = system: barnyard grass (Ec); experiment: Test Example 2: herbicidal effects by upland soil treatment; design: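 0-5 growth inhibition grade; 5 = over 90%; 4 = 70-90%; 3 = 50-70%; 2 = 30-50%; 1 = 10-30%; 0 = under 10%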; details: dose 100 g active ingredient per 10 ares, examined on the 21st day after treatment
How it was run: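 Pre-emergence test: barnyard grass and green foxtail sown in upland soil, then soil surface sprayed with wettable-powder formulation at 100 g active ingredient per 10 ares (100 l per 10 ares). Grown in greenhouse; herbicidal effect scored on a rating scale 21 days after treatment.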

[8] = dose 100 gai/10a, examined on 21st day after treatment, index 0-5 per Table 44

SMILES	herbicidal effects, Mo (monochoria) [1]	Or (herbicidal effect index on crop) [2]	Mo (herbicidal effect index) [3]	Eo (herbicidal effect index) [4]	herbicidal effects, Eo (barnyard grass) [5]	Ec (herbicidal effects, index) [6]	Ec (herbicidal effects, index) [7]	Herbicidal effect index, Mo [1, 8]	Herbicidal effect index, Eo [5, 8]
CSC(C)C(c1cncnc1C(F)(F)F)N(C)C(=O)Cc1ccc(F)cc1 (mixture of isomers) [1-416]	5	1	5	5	5	5	5	–	–
CC(=O)c1ncncc1C(C(C)C)N(C)C(=O)C(C)c1ccc(Cl)cc1 (mixture of isomers) [1-530]	5	1	5	5	5	4	5	–	–
CN(C(=O)Cc1ccccc1)C(c1ccc(Cl)cc1)c1cncnc1C(F)(F)F (racemic) [1-221]	5	1	5	5	5	4	–	–	–
CCCC(c1cncnc1C(C)C)N(C)C(=O)Cc1ccccc1 (racemic) [1-449]	5	–	–	–	5	4	5	–	–
CCCC(c1cncnc1C(C)C)N(C)C(=O)Cc1ccc(F)cc1 (racemic) [1-450]	5	–	–	–	5	4	5	–	–
CCCC(c1cncnc1C(C)C)N(C)C(=O)Cc1ccc(Cl)cc1 (racemic) [1-451]	5	–	–	–	5	4	5	–	–
CON=CC(c1cncnc1C(C)C)N(C)C(=O)Cc1ccc(F)cc1 (racemic) [1-463]	5	–	–	–	5	4	4	–	–
CON=CC(c1cncnc1C(C)C)N(C)C(=O)Cc1ccc(Cl)cc1 (racemic) [1-464]	5	–	–	–	5	4	5	–	–
CC(C)C(c1cncnc1C(F)(F)F)N(CC#N)C(=O)Cc1ccc(Cl)cc1 (racemic) [1-482]	5	–	–	–	5	5	5	–	–
COc1ccc(C(c2cncnc2C(F)(F)F)N(C)C(=O)Cc2ccc(Cl)cc2)cc1 (racemic) [1-486]	5	1	5	5	5	4	–	–	–
COc1ccccc1C(c1cncnc1C(F)(F)F)N(C)C(=O)Cc1ccccc1 (racemic) [1-488]	5	–	–	–	5	5	5	–	–
CON=Cc1ncncc1C(C(C)C)N(C)C(=O)Cc1ccc(F)cc1 (racemic) [1-497]	5	–	–	–	5	4	5	–	–
CC(=O)c1ncncc1C(C(C)C)N(C)C(=O)Cc1ccccc1 (racemic) [1-526]	5	–	–	–	5	5	5	–	–
CC(C)C(c1cncnc1C(F)(F)F)N(C)C(=O)N(C)c1ccccc1F (racemic) [1-536]	5	–	–	–	5	4	5	–	–
CC(C)C(c1cncnc1C(F)(F)F)N(C)C(=O)N(C)c1ccc(F)cc1F (racemic) [1-537]	5	–	–	–	5	4	5	–	–
CCc1ncncc1C(C(C)C)N(C)C(=O)N(C)c1ccccc1 (racemic) [1-538]	5	–	–	–	5	4	5	–	–

SMILES	herbicidal effects, Mo (monochoria) [1]	Or (herbicidal effect index on crop) [2]	Mo (herbicidal effect index) [3]	Eo (herbicidal effect index) [4]	herbicidal effects, Eo (barnyard grass) [5]	Ec (herbicidal effects, index) [6]	Ec (herbicidal effects, index) [7]	Herbicidal effect index, Mo [1, 8]	Herbicidal effect index, Eo [5, 8]
CCc1ncncc1C(C(C)C)N(C)C(=O)N(C)c1ccc(F)cc1 (racemic) [1-539]	5	–	–	–	5	4	5	–	–
CCc1ncncc1C(C(C)C)N(C)C(=O)N(C)c1ccc(Cl)cc1 (racemic) [1-540]	5	–	–	–	5	4	5	–	–
CN(C(=O)Cc1ccccc1)C(c1ccccc1F)c1cncnc1C(F)(F)F (racemic) [1-546]	5	–	–	–	5	4	5	–	–
C#CCN(C(=O)Cc1ccc(Cl)cc1)C(c1cncnc1CC)C(C)C (racemic) [1-560]	5	–	–	–	5	4	5	–	–
CON=C(C)C(c1cncnc1C(C)C)N(C)C(=O)Cc1ccc(F)cc1 (racemic) [1-563]	5	–	–	–	5	5	5	–	–
CCc1ncncc1C(N(C)C(=O)Cc1ccc(F)cc1)C(C)(C)C (racemic) [1-565]	5	–	–	–	5	5	5	–	–
CCC(c1cncnc1C(C)(C)C)N(C)C(=O)Cc1ccc(F)cc1 (racemic) [1-571]	4	–	–	–	5	4	5	–	–
COCc1ncncc1C(C(C)C)N(C)C(=O)Cc1ccc(Cl)cc1 (racemic) [1-589]	5	–	–	–	5	4	5	–	–
CC(C)c1ncncc1C(C(C)C)N(C)C(=O)Cc1cccs1 (racemic) [2-23]	5	–	–	–	5	4	5	–	–
CC(C)C(c1cncnc1C(F)(F)F)N(C)C(=O)COc1cc(C(F)(F)F)nn1C (racemic) [2-46]	5	–	–	–	5	4	5	–	–
CC(C)CC(c1cncnc1C(F)(F)F)N(C)C(=O)Cc1cccs1 (racemic) [2-51]	5	–	–	–	5	4	5	–	–
Cc1ccc(CC(=O)N(C)C(CC(C)C)c2cncnc2C(F)(F)F)s1 (racemic) [2-53]	5	–	–	–	5	4	5	–	–
CCOCN(C(=O)Cc1ccc(C)cc1)C(c1cncnc1C(F)(F)F)C(C)C (racemic) [Compound 1-107]	–	0	5	5	–	4	–	5	5
CC(C)c1ncncc1C(C(C)C)N(C)C(=O)Cc1cccc(F)c1 (racemic) [Compound 1-270]	5	–	–	–	5	4	5	–	–
COC(=O)c1ncncc1C(C(C)C)N(C)C(=O)C(C)c1ccc(Cl)cc1 (single isomer, unassigned) [Compound 1-592, 5-(1-{[2-(4-chlorophenyl)-propionyl]methylamino}-2-methylpropyl)-pyrimidine-4-carboxylic acid methyl ester]	5	–	–	–	5	5	5	–	–
